# The source made the active and inactive calls. No cut-off for these calls is given here.
# Experiments:
# Cannabinoid receptor 2 [1] = biological target: T1, Cannabinoid receptor 2 (Homo sapiens, UniProt P34972); experiment: Displacement of [3H]-CP55940 from human CB2 receptor expressed in HEK293 cell membrane assessed as inhibition constant incubated for 90 mins by radioligand competition binding assay; format: cell membranes
# Cannabinoid receptor 1 [2] = biological target: T2, Cannabinoid receptor 1 (Homo sapiens, UniProt P21554); experiment: Displacement of [3H]-CP55940 from human CB1 receptor expressed in HEK293 cell membrane at 1 uM incubated for 60 mins by radioligand competition binding assay relative to control; format: cell membranes
# Cannabinoid receptor 2 [3] = biological target: T1, Cannabinoid receptor 2; experiment: Displacement of [3H]-CP55940 from human CB2 receptor expressed in HEK293 cell membrane at 1 uM incubated for 90 mins by radioligand competition binding assay relative to control; format: cell membranes
# Cannabinoid receptor 2 [4] = biological target: T1, Cannabinoid receptor 2; experiment: Agonist activity at human CB2 receptor expressed in CHO-K1 cells assessed as inhibition of NKH-477 induced cAMP production incubated for 30 mins by luminescence based analysis; format: functional, cell-based
# Cannabinoid receptor 2 [5] = biological target: T1, Cannabinoid receptor 2; experiment: Agonist activity at human CB2 receptor expressed in CHO-K1 cells assessed as inhibition of NKH-477 induced cAMP production by measuring maximal efficacy incubated for 30 mins by luminescence based analysis relative to control; format: functional, cell-based; details: filed as agonist
# Cannabinoid receptor 1 [6] = biological target: T2, Cannabinoid receptor 1; experiment: Displacement of [3H]-CP55940 from human CB1 receptor expressed in HEK293 cell membrane assessed as inhibition constant incubated for 60 mins by radioligand competition binding assay; format: cell membranes
# THP-1 [7] = experiment: Antiinflammatory activity against LPS-activated human THP-1 monocytes assessed as decrease in IL-1beta production at 1 to 10 uM incubated for 24 hrs by ELISA coupled qRT-PCR analysis; format: functional, cell-based; details: dose 1-10 µM
# THP-1 [8] = experiment: Antiinflammatory activity in PMA-differentiated human THP-1 macrophages assessed as decrease in IFN-gamma production at 1 to 10 uM incubated for 24 hrs by ELISA coupled qRT-PCR analysis; format: functional, cell-based; details: dose 1-10 µM
# THP-1 [9] = experiment: Antiinflammatory activity in human THP-1 monocytes assessed as increase in IL-4 production at 1 to 10 uM incubated for 24 hrs by ELISA coupled qRT-PCR analysis; format: functional, cell-based; details: dose 1-10 µM
# THP-1 [10] = experiment: Antiinflammatory activity against LPS-activated PMA-differentiated human THP-1 macrophages assessed as decrease in TNF-alpha production at 1 to 10 uM incubated for 24 hrs by ELISA coupled qRT-PCR analysis; format: functional, cell-based; details: dose 1-10 µM
# THP-1 [11] = experiment: Antiinflammatory activity in human THP-1 monocytes assessed as decrease in IL-6 production at 1 to 10 uM incubated for 24 hrs by ELISA coupled qRT-PCR analysis; format: functional, cell-based; details: dose 1-10 µM
# THP-1 [12] = experiment: Antiinflammatory activity against LPS-activated PMA-differentiated human THP-1 macrophages assessed as decrease in IFN-gamma production at 1 to 10 uM incubated for 24 hrs by ELISA coupled qRT-PCR analysis; format: functional, cell-based; details: dose 1-10 µM
# THP-1 [13] = experiment: Antiinflammatory activity in PMA-differentiated human THP-1 macrophages assessed as decrease in IL-1beta production at 1 to 10 uM incubated for 24 hrs by ELISA coupled qRT-PCR analysis; format: functional, cell-based; details: dose 1-10 µM
# THP-1 [14] = experiment: Antiinflammatory activity against LPS-activated PMA-differentiated human THP-1 macrophages assessed as increase in IL-10 production at 10 uM incubated for 24 hrs by ELISA coupled qRT-PCR analysis; format: functional, cell-based
# Cannabinoid receptor 2 [15] = biological target: T1, Cannabinoid receptor 2; experiment: Antagonist activity at human CB2 receptor expressed in CHO-K1 cells assessed as reversal of JWH-133 mediated cAMP reduction preincubated with compound for 15 mins followed by JWH-133 addition and measured after 30 mins in the presence of NKH-477 by luminescence based analysis; format: functional, cell-based; details: filed as antagonist, time 45.0 min
# THP-1 [16] = experiment: Antiinflammatory activity against LPS-activated human THP-1 monocytes assessed as decrease in TNF-alpha production at 1 to 10 uM incubated for 24 hrs by ELISA coupled qRT-PCR analysis; format: functional, cell-based; details: dose 1-10 µM
# THP-1 [17] = experiment: Antiinflammatory activity in PMA-differentiated human THP-1 macrophages assessed as decrease in IL-6 production at 1 to 10 uM incubated for 24 hrs by ELISA coupled qRT-PCR analysis; format: functional, cell-based; details: dose 1-10 µM
# THP-1 [18] = experiment: Antiinflammatory activity in human THP-1 monocytes assessed as increase in IL-10 production at 1 to 10 uM incubated for 24 hrs by ELISA coupled qRT-PCR analysis; format: functional, cell-based; details: dose 1-10 µM
# THP-1 [19] = experiment: Antiinflammatory activity in PMA-differentiated human THP-1 macrophages assessed as increase in IL-10 production at 1 to 10 uM incubated for 24 hrs by ELISA coupled qRT-PCR analysis; format: functional, cell-based; details: dose 1-10 µM
# THP-1 [20] = experiment: Antiinflammatory activity against LPS-activated PMA-differentiated human THP-1 macrophages assessed as decrease in IL-6 production at 1 to 10 uM incubated for 24 hrs by ELISA coupled qRT-PCR analysis; format: functional, cell-based; details: dose 1-10 µM
# THP-1 [21] = experiment: Antiinflammatory activity in PMA-differentiated human THP-1 macrophages assessed as increase in IL-4 production at 1 to 10 uM incubated for 24 hrs by ELISA coupled qRT-PCR analysis; format: functional, cell-based; details: dose 1-10 µM
# THP-1 [22] = experiment: Antiinflammatory activity against LPS-activated PMA-differentiated human THP-1 macrophages assessed as decrease in IL-1beta production at 1 to 10 uM incubated for 24 hrs by ELISA coupled qRT-PCR analysis; format: functional, cell-based; details: dose 1-10 µM
# THP-1 [23] = experiment: Antiinflammatory activity in human THP-1 monocytes assessed as decrease in IL-1beta production at 1 to 10 uM incubated for 24 hrs by ELISA coupled qRT-PCR analysis; format: functional, cell-based; details: dose 1-10 µM
# THP-1 [24] = experiment: Antiinflammatory activity in human THP-1 monocytes assessed as decrease in IFN-gamma production at 1 to 10 uM incubated for 24 hrs by ELISA coupled qRT-PCR analysis; format: functional, cell-based; details: dose 1-10 µM
# THP-1 [25] = experiment: Antiinflammatory activity against LPS-activated human THP-1 monocytes assessed as increase in IL-10 production at 1 to 10 uM incubated for 24 hrs by ELISA coupled qRT-PCR analysis; format: functional, cell-based; details: dose 1-10 µM
# THP-1 [26] = experiment: Antiinflammatory activity against LPS-activated human THP-1 monocytes assessed as decrease in IFN-gamma production at 1 to 10 uM incubated for 24 hrs by ELISA coupled qRT-PCR analysis; format: functional, cell-based; details: dose 1-10 µM
# THP-1 [27] = experiment: Antiinflammatory activity against LPS-activated human THP-1 monocytes assessed as increase in IL-4 production at 1 to 10 uM incubated for 24 hrs by ELISA coupled qRT-PCR analysis; format: functional, cell-based; details: dose 1-10 µM
# THP-1 [28] = experiment: Antiinflammatory activity in PMA-differentiated human THP-1 macrophages assessed as decrease in TNF-alpha production at 1 to 10 uM incubated for 24 hrs by ELISA coupled qRT-PCR analysis; format: functional, cell-based; details: dose 1-10 µM
# THP-1 [29] = experiment: Antiinflammatory activity in human THP-1 monocytes assessed as decrease in TNF-alpha production at 1 to 10 uM incubated for 24 hrs by ELISA coupled qRT-PCR analysis; format: functional, cell-based; details: dose 1-10 µM
# THP-1 [30] = experiment: Antiinflammatory activity against LPS-activated PMA-differentiated human THP-1 macrophages assessed as increase in IL-4 production at 10 uM incubated for 24 hrs by ELISA coupled qRT-PCR analysis; format: functional, cell-based
# THP-1 [31] = experiment: Antiinflammatory activity against LPS-activated human THP-1 monocytes assessed as decrease in IL-6 production at 1 to 10 uM incubated for 24 hrs by ELISA coupled qRT-PCR analysis; format: functional, cell-based; details: dose 1-10 µM
# T1 sequence (P34972 whole entry): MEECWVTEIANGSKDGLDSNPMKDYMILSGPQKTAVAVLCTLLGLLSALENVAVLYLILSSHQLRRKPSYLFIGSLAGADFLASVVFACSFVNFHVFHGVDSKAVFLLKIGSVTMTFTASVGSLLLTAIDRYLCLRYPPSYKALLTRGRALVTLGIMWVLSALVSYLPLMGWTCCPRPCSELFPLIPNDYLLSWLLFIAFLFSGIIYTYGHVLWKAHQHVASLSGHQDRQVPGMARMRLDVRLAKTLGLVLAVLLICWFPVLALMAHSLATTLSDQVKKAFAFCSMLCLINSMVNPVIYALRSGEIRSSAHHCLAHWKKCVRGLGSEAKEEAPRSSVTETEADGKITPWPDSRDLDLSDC
# T2 sequence (P21554 whole entry): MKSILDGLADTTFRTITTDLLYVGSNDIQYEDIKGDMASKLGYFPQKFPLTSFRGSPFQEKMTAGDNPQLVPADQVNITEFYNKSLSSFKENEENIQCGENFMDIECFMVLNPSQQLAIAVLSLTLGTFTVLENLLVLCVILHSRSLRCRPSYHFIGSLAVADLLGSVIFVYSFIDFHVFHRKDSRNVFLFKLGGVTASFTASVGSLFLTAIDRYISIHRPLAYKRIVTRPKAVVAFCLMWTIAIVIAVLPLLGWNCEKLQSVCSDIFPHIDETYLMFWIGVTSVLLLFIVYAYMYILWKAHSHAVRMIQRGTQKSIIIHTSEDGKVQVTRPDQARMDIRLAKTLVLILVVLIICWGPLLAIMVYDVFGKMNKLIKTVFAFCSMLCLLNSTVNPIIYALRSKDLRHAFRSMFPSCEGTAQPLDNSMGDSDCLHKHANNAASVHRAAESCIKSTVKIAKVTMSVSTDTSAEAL
smiles,measurement,setting,value
COc1ccc2c(c1)c(CCN1CCOCC1)c(C)n2C(=O)c1cccc(Cl)c1Cl,Ki,Cannabinoid receptor 2 [1],6.9 nM
CCCCCNc1ccc(-c2cccs2)cc1C(=O)NC12CC3CC(CC(C3)C1)C2,Activity,Cannabinoid receptor 1 [2],15%
same,Ki,Cannabinoid receptor 2 [1],2600 nM
CCCCCCNc1ccc(Br)cc1C(=O)NC12CC3CC(CC(C3)C1)C2,Activity,Cannabinoid receptor 2 [3],26%
same,Activity,Cannabinoid receptor 1 [2],17%
CCCC(C)(C)c1ccc2c(c1)OC(C)(C)[C@@H]1CC=C(C)C[C@@H]21,EC50,Cannabinoid receptor 2 [4],169000 nM
CCCCCNc1ccc(-c2cccc(C(N)=O)c2)cc1C(=O)NC12CC3CC(CC(C3)C1)C2,Activity,Cannabinoid receptor 2 [3],21%
same,Activity,Cannabinoid receptor 1 [2],3%
CCCCCCCNc1ccccc1C(=O)NC12CC3CC(CC(C3)C1)C2,Activity,Cannabinoid receptor 1 [2],4%
same,Ki,Cannabinoid receptor 2 [1],923 nM
CCCCCNc1ccc(-c2cccc(OC)c2)cc1C(=O)NC12CC3CC(CC(C3)C1)C2,Activity,Cannabinoid receptor 2 [3],25%
same,Activity,Cannabinoid receptor 1 [2],28%
CCCCCNc1ccc(-c2cccnc2)cc1C(=O)NC12CC3CC(CC(C3)C1)C2,Emax,Cannabinoid receptor 2 [5],98.1%
same,Activity,Cannabinoid receptor 1 [2],1%
same,Ki,Cannabinoid receptor 2 [1],330 nM
same,EC50,Cannabinoid receptor 2 [4],10400 nM
Cc1c(C(=O)NC23CC4CC(CC(C4)C2)C3)nn(CCCCCO)c1-c1ccccc1,Ki,Cannabinoid receptor 2 [1]; hek293,0.08 nM
CCCCCNc1ccc(-c2ccc(C)cc2)cc1C(=O)NC12CC3CC(CC(C3)C1)C2,Activity,Cannabinoid receptor 1 [2],16%
same,Ki,Cannabinoid receptor 2 [1],129 nM
CCCCCCCNc1ccc(-c2ccccc2)cc1C(=O)NC12CC3CC(CC(C3)C1)C2,Activity,Cannabinoid receptor 1 [2],22%
same,Ki,Cannabinoid receptor 2 [1],1180 nM
CCCCCCNc1ccccc1C(=O)NC12CC3CC(CC(C3)C1)C2,Activity,Cannabinoid receptor 1 [2],6%
same,Ki,Cannabinoid receptor 2 [1],485 nM
CCCCCNc1ccc(Br)cc1C(=O)NC12CC3CC(CC(C3)C1)C2,Activity,Cannabinoid receptor 1 [2],5%
same,Ki,Cannabinoid receptor 2 [1],456 nM
CCCCCNc1ccc(-c2ccc(F)cc2)cc1C(=O)NC12CC3CC(CC(C3)C1)C2,Ki,Cannabinoid receptor 1 [6],754 nM
same,Ki,Cannabinoid receptor 2 [1],89.5 nM
CCCCCCNc1ccc(-c2ccccc2)cc1C(=O)NC12CC3CC(CC(C3)C1)C2,Activity,Cannabinoid receptor 1 [2],35%
same,Ki,Cannabinoid receptor 2 [1],209 nM
CCCCCNc1ccc(-c2cccc(C)c2)cc1C(=O)NC12CC3CC(CC(C3)C1)C2,Activity,Cannabinoid receptor 2 [3],37%
same,Activity,Cannabinoid receptor 1 [2],14%
CCCCCNc1ccc(-c2ccccc2)cc1C(=O)NC1CCCCC1,Activity,Cannabinoid receptor 2 [3],21%
same,Activity,Cannabinoid receptor 1 [2],3%
CCCCCCCNc1ccc(-c2cccs2)cc1C(=O)NC12CC3CC(CC(C3)C1)C2,Emax,Cannabinoid receptor 2 [5],75%
same,Activity,Cannabinoid receptor 1 [2],7%
same,Ki,Cannabinoid receptor 2 [1],160 nM
same,EC50,Cannabinoid receptor 2 [4],5600 nM
CCCCCCCNc1ccc(Br)cc1C(=O)NC12CC3CC(CC(C3)C1)C2,Activity,Cannabinoid receptor 2 [3],16%
same,Activity,Cannabinoid receptor 1 [2],8%
CCCCCCCNc1ccc(-c2cccnc2)cc1C(=O)NC12CC3CC(CC(C3)C1)C2,Activity,Cannabinoid receptor 2 [3],31%
same,Activity,Cannabinoid receptor 1 [2],16%
CCCCCNc1ccc(-c2ccc(OC)cc2)cc1C(=O)NC12CC3CC(CC(C3)C1)C2,Activity,Cannabinoid receptor 1 [2],23%
same,Ki,Cannabinoid receptor 2 [1],148 nM
CCCCCNc1ccc(-c2ccc(C(N)=O)cc2)cc1C(=O)NC12CC3CC(CC(C3)C1)C2,Activity,Cannabinoid receptor 2 [3],19%
same,Activity,Cannabinoid receptor 1 [2],14%
CCCCCNc1ccc(-c2ccc(C(=O)OC)cc2)cc1C(=O)NC12CC3CC(CC(C3)C1)C2,Activity,Cannabinoid receptor 2 [3],12%
same,Activity,Cannabinoid receptor 1 [2],6%
CCCCCNc1ccc(-c2cccc(F)c2)cc1C(=O)NC12CC3CC(CC(C3)C1)C2,Emax,Cannabinoid receptor 2 [5],86.6%
same,Activity,Cannabinoid receptor 1 [2]; filed as agonist,42%
same,Ki,Cannabinoid receptor 2 [1],71 nM
same,EC50,Cannabinoid receptor 2 [4],5250 nM
CCCCCCNc1ccc(-c2cccs2)cc1C(=O)NC12CC3CC(CC(C3)C1)C2,Activity,Cannabinoid receptor 1 [2],32%
same,Ki,Cannabinoid receptor 2 [1],465 nM
CCCCCNc1ccc(-c2ccccc2)cc1C(=O)NC12CC3CC(CC(C3)C1)C2,Activity,THP-1 [7],inactive
same,Activity,THP-1 [8],inactive
same,Activity,THP-1 [9],inactive
same,Activity,THP-1 [10],inactive
same,Activity,THP-1 [11],inactive
same,Activity,Cannabinoid receptor 1 [2],5%
same,Activity,THP-1 [12],inactive
same,Activity,THP-1 [13],inactive
same,Activity,THP-1 [14],inactive
same,Activity,Cannabinoid receptor 2 [15],Active
same,Activity,THP-1 [16],inactive
same,Activity,THP-1 [17],inactive
same,Activity,THP-1 [18],inactive
same,Activity,THP-1 [19],inactive
same,Activity,THP-1 [20],inactive
same,Activity,THP-1 [21],inactive
same,Activity,THP-1 [22],inactive
same,Activity,THP-1 [23],inactive
same,Ki,Cannabinoid receptor 2 [1],47.8 nM
same,Activity,THP-1 [24],inactive
same,Activity,THP-1 [25],inactive
same,Activity,THP-1 [26],inactive
same,Activity,THP-1 [27],inactive
same,Activity,THP-1 [28],inactive
same,Activity,THP-1 [29],inactive
same,Activity,THP-1 [30],inactive
same,Activity,THP-1 [31],inactive
CCCCCCNc1ccc(-c2cccnc2)cc1C(=O)NC12CC3CC(CC(C3)C1)C2,Activity,Cannabinoid receptor 1 [2],9%
same,Ki,Cannabinoid receptor 2 [1],6500 nM
